Structures are written as SMILES. Some results are limits rather than exact numbers.

The target in experiment [1] is D816V Kit (Homo sapiens (Human), UniProt P10721, D816V). As to the kind of experiment: Kit D816V assay at Km (Caliper electrophoretic mobility shift). Format: biochemical. As to conditions: for IC50: D816V Kit 0.5 nM, 15 uM ATP (Km), 1 uM Srctide, 25 C, 90 minutes, read-out: INH-KITD816V ENZ-KM IC50 (nM) (Num); for times more potent against the D816V mutant than against the wild-type Kit: D816V Kit versus wild-type Kit, enzyme assays at Km. How it is done: (§1) In order to assess the activity of chemical compounds against the relevant kinase of interest, the Caliper LifeSciences electrophoretic mobility shift technology platform is used. Fluorescently labeled substrate peptide is incubated in the presence of kinase and ATP so that a […] proportion of the peptide is phosphorylated. At the end of the reaction, the mix of phosphorylated (product) and non-phosphorylated (substrate) peptides are passed through the microfluidic system of the Caliper EZ Reader 2, under an applied potential difference. The presence of the phosphate group on the product peptide provides a difference in mass and charge between those of the substrate peptide, resulting in a separation of the substrate and product pools in the sample. As the pools pass a LEDS within the instrument, these pools are detected and resolved as separate peaks. The ratio between these peaks therefore reflects the activity of the chemical matter at that concentration in that well, under those conditions.
(§2) The reaction was stopped by the addition of 70 ul of Stop buffer (100 mM HEPES pH 7.5, 0.015% Brij 35, 35 mM EDTA and 0.2% of Coating Reagent 3 (Caliper Lifesciences)). The plate was then read on a Caliper EZReader 2 (protocol settings: −1.9 psi, upstream voltage −700, downstream voltage −3000, post sample sip 35 s).

In experiment [2] the target is wild type Kit (Homo sapiens (Human), UniProt P10721). As to the kind of experiment: Kit wild type assay at Km (Caliper electrophoretic mobility shift). The class given is biochemical. To be noted: wild type Kit 2 nM, 400 uM ATP (Km), 1 uM Srctide, 25 C, 90 minutes; read-out: INH-KITWT ENZ-KM IC50 (nM) (Num). As to the method: as §1, §2
wild type Kit, sequence (P10721 26-976): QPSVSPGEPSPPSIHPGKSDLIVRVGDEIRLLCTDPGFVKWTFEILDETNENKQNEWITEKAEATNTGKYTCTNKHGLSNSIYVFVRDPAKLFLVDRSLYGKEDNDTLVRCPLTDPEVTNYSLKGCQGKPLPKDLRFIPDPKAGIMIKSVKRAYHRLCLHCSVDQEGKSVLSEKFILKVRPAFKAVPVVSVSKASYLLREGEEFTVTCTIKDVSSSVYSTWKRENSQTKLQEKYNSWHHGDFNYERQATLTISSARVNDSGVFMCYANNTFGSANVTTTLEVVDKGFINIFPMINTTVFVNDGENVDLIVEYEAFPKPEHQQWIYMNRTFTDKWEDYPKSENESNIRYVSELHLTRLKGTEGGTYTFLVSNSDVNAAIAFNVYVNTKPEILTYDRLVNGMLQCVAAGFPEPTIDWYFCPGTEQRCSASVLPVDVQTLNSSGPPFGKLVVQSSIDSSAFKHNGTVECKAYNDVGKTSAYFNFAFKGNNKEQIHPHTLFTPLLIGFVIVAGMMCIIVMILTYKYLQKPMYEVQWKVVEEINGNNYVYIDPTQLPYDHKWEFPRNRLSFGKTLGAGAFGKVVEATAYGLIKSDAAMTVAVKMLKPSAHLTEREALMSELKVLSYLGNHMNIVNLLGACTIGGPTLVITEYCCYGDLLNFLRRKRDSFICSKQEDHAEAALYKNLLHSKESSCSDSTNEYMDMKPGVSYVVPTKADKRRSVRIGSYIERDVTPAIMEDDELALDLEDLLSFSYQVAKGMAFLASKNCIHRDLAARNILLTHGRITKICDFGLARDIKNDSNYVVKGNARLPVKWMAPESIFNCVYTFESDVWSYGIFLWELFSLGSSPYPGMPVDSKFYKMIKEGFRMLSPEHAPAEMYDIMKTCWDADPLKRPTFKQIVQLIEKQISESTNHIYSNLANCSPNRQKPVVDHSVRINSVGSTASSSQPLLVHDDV

D816V Kit, sequence (P10721 26-976 D816V): as the sequence (P10721 26-976) above, with D791V counted along it

Turning to `COc1cc2ncnc(N3CCN(c4ncc(Nc5ccncc5)cn4)CC3)c2cc1OC` [Compound 17], the IC50 is over 100 nM in experiment [1] and over 1000 nM in experiment [2].

For `COc1cc2ncnc(N3CCN(c4ncc(Cc5ccccc5)cn4)C(=O)C3)c2cc1OC` [Compound 21], the results for the IC50 in experiment [1] and in experiment [2] were over 100 nM and over 1000 nM, respectively. In addition, the “times more potent against the D816V mutant than against the wild-type Kit” value (“times more potent” for short) in experiment [1] is “less than 5 times”.

Regarding `COc1cc2ncnc(N3CC4CCC(C3)N4c3ncc(Cc4ccccc4)cn3)c2cc1OCC1CNCCO1` (stereo not drawn) [Compound 121], the values for the IC50 in experiment [1] and in experiment [2] were under 1 nM and 11 to 100 nM, respectively.

On to `COc1cc2ncnc(N3CCN(c4ncc(OCc5ccccc5)cn4)CC3)c2cc1OC` [Compound 37, 4-(4-(5-(benzyloxy)pyrimidin-2-yl)piperazin-1-yl)-6,7-dimethoxyquinazoline], for which the IC50 is 1.01 to 10 nM in experiment [1] and 100 to 1000 nM in experiment [2].

Regarding `COc1cc2c(N3CCN(c4ncc(Cc5ccccc5)cn4)CC3)ncnc2cc1OCC1(C)COC1` [Compound 93], the figures for the IC50 in experiment [1] and in experiment [2] were 1.01 to 10 nM and 11 to 100 nM, respectively.

Regarding `COc1cc2ncnc(N3CCN(c4ncc(Cc5ccccc5)cn4)C[C@H]3C)c2cc1OC` [Compound 28], in experiment [1], the IC50 was over 100 nM and the “times more potent” value is recorded as “less than 5 times”. The IC50 in experiment [2] was over 1000 nM.

Consider `COc1cc2ncnc(N3CCN(c4ncc(Cc5ccccc5)cn4)CC3)c2cc1OC[C@@H]1CNCCO1` [Compound 106], for which the IC50 fell in the range of 1.01 to 10 nM in experiment [1] and 11 to 100 nM in experiment [2].

For `COc1ccc2ncnc(N3CCN(c4ncc(OCc5ccccc5)cn4)CC3)c2c1` [Compound 10], the IC50 was over 100 nM in experiment [1] and over 1000 nM in experiment [2].

On to `COc1cc2ncnc(N3CCN(c4ncc(Cc5ccccc5)c(=O)[nH]4)CC3)c2cc1OC[C@H]1CNCCO1` [Compound 120], for which the IC50 in experiment [1] was under 1 nM; in experiment [2], under 10 nM.

Take `COc1cc2ncnc(N3CCN(c4ncc(Cc5ccccc5)cn4)CC3)c2cc1OC1CCNC1` (stereo not drawn) [Compound 80]: the results for the IC50 in experiment [1] and in experiment [2] were 1.01 to 10 nM and 11 to 100 nM, respectively.

`COc1cc2ncnc(N3CCN(c4ncc(Nc5ccc(F)c(F)c5)cn4)CC3)c2cc1OC` [Compound 71]: the values for the IC50 in experiment [1] and in experiment [2] were 1.01 to 10 nM and 100 to 1000 nM, respectively.

With `COc1cc2ncnc(N3CCN(c4ncc(Cc5ccccc5)cn4)CC3)c2cc1OCC1CN(C)CCO1` (stereo not drawn) [Compound 117], the values for the IC50 in experiment [1] and in experiment [2] were under 1 nM and 11 to 100 nM, respectively.

Consider `COc1cc2ncnc(N3CCN(c4ncc(Cc5ccccc5)cn4)CC3)c2cc1OCC1CCCN(C)C1` (stereo not drawn) [Compound 114], for which the IC50 is under 1 nM in experiment [1] and 11 to 100 nM in experiment [2].

With `COc1cc2ncnc(N3CCN(c4ncc(Cc5ccc(C#N)cc5)cn4)CC3)c2cc1OC` [Compound 45], the IC50 in experiment [1] lay in the range of 1.01 to 10 nM; in experiment [2], 100 to 1000 nM.

Take `COc1cc2c(N3CCN(c4ncc(Cc5ccccc5)cn4)CC3)ncnc2cc1OC(F)F` [Compound 72]: the IC50 in experiment [1] fell in the range of 10 to 100 nM.

In the case of `COc1cc2ncnc(N3CCN(c4ncc(O[C@@H](C)c5ccccc5)cn4)CC3)c2cc1OC` [Compound 64], the half-inhibitory concentration (IC50) was 10 to 100 nM in experiment [1] and over 1000 nM in experiment [2].

Consider `COc1cc2ncnc(N3CCN(c4ncc(Cc5ccccc5)cn4)C(C)C3)c2cc1OC` (stereo not drawn) [Compound 26], for which the IC50 is 10 to 100 nM in experiment [1] and 100 to 1000 nM in experiment [2].

On to `COc1cc2ncnc(N3CCN(c4ncc(Cc5cccc(C#N)c5)cn4)CC3)c2cc1OC` [Compound 46], for which the IC50 in experiment [1] fell in the range of 10 to 100 nM; in experiment [2], 100 to 1000 nM.

Consider `COc1cc2ncnc(N3CCN(c4ncc(Nc5ccc(C(C)(C)C)cc5)cn4)CC3)c2cc1OC` [Compound 82], for which the IC50 in experiment [1] was over 100 nM; in experiment [2], over 1000 nM.

For `COc1cc2ncnc(N3CCN(c4ncc(OCc5cccs5)cn4)CC3)c2cc1OC` [Compound 43], the IC50 in experiment [1] lay within 1.01 to 10 nM; in experiment [2] it was 100 to 1000 nM.

Regarding `COc1cc2ncnc(N3CCN(c4ncc(Sc5ccc(F)cc5)cn4)CC3)c2cc1OCC1CCN(C)CC1` [Compound 140], the IC50 in experiment [1] is 1.01 to 10 nM; in experiment [2], 11 to 100 nM.

For the molecule `COc1cc2ncnc(N3CCN(c4ncc(Cc5ccccc5)c(=O)[nH]4)CC3)c2cc1OCC1CCN(C)CC1` [Compound 127], the IC50 was under 1 nM in experiment [1] and under 10 nM in experiment [2].

Regarding `COc1cccc(Cc2cnc(N3CCN(c4ncnc5cc(OC)c(OC)cc45)CC3)nc2)c1` [Compound 57], the figures for the IC50 in experiment [1] and in experiment [2] were under 1 nM and 11 to 100 nM, respectively. In addition, the “times more potent” value in experiment [1] is listed as “at least 100 times”.

Turning to `CCOc1cc2ncnc(N3CCN(c4ncc(Cc5ccccc5)cn4)CC3)c2cc1OCC1CCN(C)CC1` [Compound 122], the IC50 in experiment [1] was under 1 nM; in experiment [2], under 10 nM.

As for `COc1cc2ncnc(N3CCN(c4ncc(CCc5ccccc5)cn4)CC3)c2cc1OC` [Compound 24], the IC50 was 1.01 to 10 nM in experiment [1] and 100 to 1000 nM in experiment [2].

Turning to `COc1cc2ncnc(N3C[C@H]4CC[C@@H](C3)N4c3ncc(Cc4ccccc4)cn3)c2cc1OC` [Compound 48, 4-((1R,5S)-8-(5-Benzylpyrimidin-2-yl)-3,8-diazabicyclo[3.2.1]octan-3-yl)-6,7-dimethoxyquinazoline], the IC50 was 1.01 to 10 nM in experiment [1] and 11 to 100 nM in experiment [2].

As for `COc1cc2ncnc(N3CCN(c4ncc(Cc5ccccc5)cn4)CC3)c2cc1OCCN1CCN(C)CC1` [Compound 126], the IC50 in experiment [1] is 1.01 to 10 nM; in experiment [2], 11 to 100 nM.

Regarding `COc1cc2ncnc(N3CCN(c4ncc(Cc5ccccc5)cn4)CC3)c2cc1OCCN1CCNCC1` [Compound 116], the IC50 is 1.01 to 10 nM in experiment [1] and 11 to 100 nM in experiment [2].

With `COc1cc2ncnc(N3CCN(c4ncc(NCc5cccc(C)c5)cn4)CC3)c2cc1OC` [Compound 55], the IC50 is 10 to 100 nM in experiment [1] and over 1000 nM in experiment [2].

As for `COc1cc2ncnc(N3CCN(c4ncc(Cc5cccc(C(N)=O)c5)cn4)CC3)c2cc1OC` [Compound 75], the IC50 in experiment [1] is 1.01 to 10 nM; in experiment [2] it was 100 to 1000 nM.

On to `COc1cc2ncnc(N3CCN(c4ncc(NCc5ccccc5)cn4)CC3)c2cc1OC` [Compound 34, N-benzyl-2-(4-(6,7-dimethoxyquinazolin-4-yl)piperazin-1-yl)pyrimidin-5-amine], for which the IC50 in experiment [1] fell in the range of 10 to 100 nM; in experiment [2] it was 100 to 1000 nM.

In the case of `COc1cc2ncnc(N3CCN(c4ncc(Cc5cccc(F)c5)cn4)CC3)c2cc1OC` [Compound 39], the IC50 in experiment [1] was in the range of 1.01 to 10 nM; in experiment [2] it was 100 to 1000 nM.

In the case of `COc1cc2ncnc(N3CCN(c4ncc(Oc5ccccc5)cn4)CC3)c2cc1OC` [Compound 14, 6,7-dimethoxy-4-(4-(5-phenoxypyrimidin-2-yl)piperazin-1-yl)quinazoline], the figures for the IC50 in experiment [1] and in experiment [2] were 1.01 to 10 nM and 11 to 100 nM, respectively.

As to `COc1cc2ncnc(N3CCN(c4ncc(OCc5ccc(C#N)cc5)cn4)CC3)c2cc1OC` [Compound 73], in experiment [1], the IC50 is over 100 nM and the “times more potent” value is “at least 100 times”. Also, the IC50 in experiment [2] was over 1000 nM.

`COc1cc2ncnc(N3CCN(c4ncc(OCc5ccsc5)cn4)CC3)c2cc1OC` [Compound 44]: the IC50 lay in the range of 10 to 100 nM in experiment [1] and 100 to 1000 nM in experiment [2].

For the molecule `COc1cc2ncnc(N3CCN(c4ncc(Nc5ccc(Cl)cc5)cn4)CC3)c2cc1OC` [Compound 70], the results for the IC50 in experiment [1] and in experiment [2] were 1.01 to 10 nM and 100 to 1000 nM, respectively.

On to `COc1cc2ncnc(N3CCN(c4ncc(OCC5CCCC5)cn4)CC3)c2cc1OC` [Compound 18], for which the IC50 in experiment [1] is over 100 nM; in experiment [2], over 1000 nM. In experiment [1], the “times more potent” value is recorded as “at least 100 times”.

For the molecule `COc1cc2ncnc(N3CCN(c4ncc(Cc5ccccc5)cn4)CC3)c2cc1OCC1CN(C)C1` [Compound 90], the IC50 in experiment [1] is under 1 nM; in experiment [2] it was 11 to 100 nM.

Regarding `COc1cc2ncnc(N3CCN(c4ncc(N5CCc6ccccc65)cn4)CC3)c2cc1OC` [Compound 49], the IC50 lay in the range of 10 to 100 nM in experiment [1] and 100 to 1000 nM in experiment [2].

With `COc1cc2ncnc(N3CCN(c4ncc(OCc5ccc(F)cc5)cn4)CC3)c2cc1OC` [Compound 69], the IC50 in experiment [1] fell in the range of 10 to 100 nM; in experiment [2], 100 to 1000 nM.

`COc1cc2ncnc(N3CCN(c4ncc(Cc5ccccc5)c(N)n4)CC3)c2cc1OC` [Compound 29]: the IC50 in experiment [1] was under 1 nM; in experiment [2] it was under 10 nM.

For the molecule `COc1cc2ncnc(N3CCN(c4ncc(Nc5cccc(C)c5)cn4)CC3)c2cc1OC` [Compound 33], the results for the IC50 in experiment [1] and in experiment [2] were 10 to 100 nM and 100 to 1000 nM, respectively.

`COc1cc2ncnc(N3CCN(c4ncc(-c5ccccc5)cn4)CC3)c2cc1OC` [Compound 9]: the figures for the IC50 in experiment [1] and in experiment [2] were over 100 nM and over 1000 nM, respectively.

As to `COc1cc2ncnc(N3CCN(c4ncc(Cc5ccccc5)cn4)CC3)c2cc1OCC1CCNC1` (stereo not drawn) [Compound 89], the IC50 was under 1 nM in experiment [1] and 11 to 100 nM in experiment [2].

On to `COc1cc2ncnc(N3CCN(c4ncc(NCc5ccc6c(c5)OCO6)cn4)CC3)c2cc1OC` [Compound 83], for which, in experiment [1], the IC50 was over 100 nM.

The record behind these values is patent US9994552B2, “Compositions useful for treating disorders related to kit” (BLUEPRINT MEDICINES CORPORATION, priority 2013, dated 2018).
